From PubChem BioAssay AID1053181 (The Scripps Research Institute Molecular Screening Center, 2014) come the findings set out here.

As a reminder, the EC50 is the concentration at which the effect is half-maximal.

The structures appear in SMILES notation. Active and inactive are the calls of the source. The rule behind the calls is not given here. Where only a bound is given, the exact number is not on record here.

The target in the experiment is Trace amine-associated receptor 1 (Homo sapiens) (UniProt Q96RJ0). Briefly: activators of human TAAR1 signalling – cell-based, fluorescence, MedChem round 2, SAR follow-up (AID 1053181). As to conditions: TAAR1-expressing cells, fluorescence agonist read-out.
Chain of Trace amine-associated receptor 1 (Homo sapiens) (Q96RJ0 whole entry, looked up, the tested form may be a part): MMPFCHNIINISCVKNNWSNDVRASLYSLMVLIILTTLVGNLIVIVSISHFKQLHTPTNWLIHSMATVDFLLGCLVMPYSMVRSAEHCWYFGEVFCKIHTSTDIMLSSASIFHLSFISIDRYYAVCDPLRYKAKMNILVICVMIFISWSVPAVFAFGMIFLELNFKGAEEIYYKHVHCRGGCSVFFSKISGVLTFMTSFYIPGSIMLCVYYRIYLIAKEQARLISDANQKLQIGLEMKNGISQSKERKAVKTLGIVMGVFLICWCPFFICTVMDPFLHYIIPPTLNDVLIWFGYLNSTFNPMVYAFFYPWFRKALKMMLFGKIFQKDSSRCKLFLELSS
In the case of `Cc1ccc(C(=O)CCN2CCC(c3ccccc3)C2)cc1` (configuration not stated), the EC50 was 672 nM. As to `COc1cc(C(=O)CCN2CCC(c3ccccc3)C2)cc(OC)c1OC` (configuration not stated), the EC50 was 419 nM. Regarding `N#Cc1c(C(F)(F)F)cc(-c2ccc(Cl)cc2)nc1SCC(=O)N1CCCC1`, the concentration for a half-maximal effect (EC50) was 1070 nM. Consider `N#Cc1c(C(F)(F)F)cc(-c2ccc(Cl)cc2)nc1SCC(=O)Nc1ncccn1`, for which the concentration giving a half-maximal response (EC50) is 3.74 nM. The figure for `N#Cc1c(C(F)(F)F)cc(-c2ccc(Cl)cc2)nc1SCC(=O)N1CCCCCC1` is > 29900 nM (inactive). On to `O=C(CCN1CCC(c2ccccc2)C1)c1ccccc1` (configuration not stated), for which the EC50 was 765 nM.

As to `CC(CN1CCCC1Cc1ccccc1)C(=O)c1ccc2c(c1)OCCO2` (configuration not stated), the EC50 was 2960 nM.
